The subject of data set [1] is CB1. Details: method as in PMID 29408093. Particulars: HEK cells transiently expressing CB1; cited from earlier work.
In data set [2] the target is T1, human CB1 receptor (Homo sapiens, UniProt P21554).
T1 construct: HA (hemagglutinin); expressed in transfected cells; host or cells: HEK 293 FlpIn cells with GIRK4 expression, stably transfected (pcDNA5/FRT + pOG44)
It counts as cell-based.

Data set [3] deals with HEK 293 wild‐type cells. Briefly: FSK-stimulated cAMP accumulation in HEK 293 wild-type cells (not containing CB1 receptors). It counts as cell-based, human. Particulars: 10 µmol L^−1, HEK 293 wild-type cells.
The subject of data set [4] is CB1. Details: method as in PMID 30925348, PMID 26795398, PMID 29042214, PMID 28874764, PMID 25769232. The note with it: mice; cited from earlier work.
Data set [5] concerns the target T1, human CB1 receptor. Type of data set: cell-based. This is another data set of the same source.
The mark [6] stands for this setting: read-out: G i (‐PTX) EC50 (converted).
Where [7] appears, read: read-out: G s (+PTX) EC50 (converted).
Where [8] appears, read: read-out: Gs (+PTX) EC50 (converted).

“Also recorded” adds a separate entry of the source. Where two headings read alike, the source gives them in different places.

T1 sequence (P21554 whole entry): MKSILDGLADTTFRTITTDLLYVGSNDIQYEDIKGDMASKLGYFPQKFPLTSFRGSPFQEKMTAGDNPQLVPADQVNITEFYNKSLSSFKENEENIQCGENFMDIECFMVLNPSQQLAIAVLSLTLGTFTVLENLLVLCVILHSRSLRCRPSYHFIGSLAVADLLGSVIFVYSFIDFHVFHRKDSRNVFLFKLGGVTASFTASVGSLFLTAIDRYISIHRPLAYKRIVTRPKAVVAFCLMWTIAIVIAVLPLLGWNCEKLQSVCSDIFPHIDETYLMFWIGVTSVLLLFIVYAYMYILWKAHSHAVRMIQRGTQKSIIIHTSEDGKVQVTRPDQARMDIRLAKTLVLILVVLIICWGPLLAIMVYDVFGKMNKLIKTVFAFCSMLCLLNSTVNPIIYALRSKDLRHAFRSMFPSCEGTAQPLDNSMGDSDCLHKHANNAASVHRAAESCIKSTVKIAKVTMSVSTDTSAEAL

Regarding `CC(C)[C@H](NC(=O)c1nn(CC2CCCCC2)c2ccccc12)C(N)=O`, the “effect on cAMP levels in absence and presence of forskolin” value in data set [1] was “elevation in cAMP levels”. For the same compound, in data set [2], the “effect of SR141716A pretreatment on SCRA-mediated stimulation of FSK-induced cAMP response” value (shortened to “effect … of FSK-induced cAMP response”) is recorded as “only partially inhibited; also recorded: not significantly different” and the “increase in cAMP levels above that of FSK alone” value is given as 86 ± 21%. Moreover, in data set [3], the “increase in FSK‐stimulated cAMP accumulation” value was determined as 29 ± 10%.
In the case of `CCCCC/C=C\C/C=C\C/C=C\C/C=C\CCCC(=O)OC(CO)CO` [2‐AG, 2‐arachidonoyl glycerol, reference compound], in data set [2], the “effect on cAMP relative to CP55940” value is on record as “approximately twice that of CP55940”.
On to `CC(C)[C@H](NC(=O)c1nn(CCCCCF)c2ccccc12)C(N)=O` [5F‐AB‐PINACA], for which the “induced seizures, mechanism” value in data set [4] is “CB1‐mediated”.
For orientation: EC50 means the concentration that produces a half-maximal response. For `COC(=O)[C@@H](NC(=O)c1cn(CCCCCF)c2ccccc12)C(C)(C)C` [5F‐MDMB‐PICA], in data set [5], the “G i (‐PTX) E max (% FSK)” value was 60 ± 4 % FSK, the “G i (‐PTX) pEC50” value is recorded as 9.2 ± 0.2 (0.62), the “G i (−PTX) selectivity” value is given as 137 and the “effect of SR141716A pretreatment on SCRA-induced inhibition of cAMP signaling” value is “blocked”. Also, in data set [5] (setting [6]), the EC50 is 0.62 nM. In addition, in data set [2], the “G s (+PTX) E max (% FSK)” value was found to be 126 ± 5 % FSK, the “G s (+PTX) pEC50” value is on record as 7.1 ± 0.4 (85) and the “effect … of FSK-induced cAMP response” value is given as “inhibited”. The EC50 in data set [2] (setting [7]) is 85 nM.
In the case of `CC(C)[C@H](NC(=O)c1nn(Cc2ccc(F)cc2)c2ccccc12)C(N)=O` [AB‐FUBINACA], in data set [5], the “G i (‐PTX) E max (% FSK)” value worked out at 61 ± 2 % FSK, the “G i (‐PTX) pEC50” value is 9.0 ± 0.2 (0.96), the “Gi (-PTX) selectivity” value came out at 348 and the “effect of SR141716A pretreatment on SCRA-induced inhibition of cAMP signaling” value is given as “blocked”. Besides, the EC50 in data set [5] (setting [6]) was 0.96 nM. Besides, the EC50 in data set [5] (read-out: Gi (-PTX) EC50 (converted)) is 1.1 nM. Also, in data set [2], the “G s (+PTX) E max (% FSK)” value is 144 ± 12 % FSK, the “effect … of FSK-induced cAMP response” value is recorded as “inhibited”, the “effect on cAMP relative to CP55940” value is listed as “up to 2.5 times” and the “increase in cAMP levels above that produced by FSK alone” value (shortened to “increase … by FSK alone”) was “more than 30%”. For the same compound, the EC50 in data set [2] (setting [8]) is 383 nM.
With `CCCCCn1nc(C(=O)N[C@H](C(N)=O)C(C)C)c2ccccc21` [AB‐PINACA], in data set [2], the “increase … by FSK alone” value is on record as “more than 30%”.
With `O=C(c1cccc2ccccc12)c1cn(CCCCCF)c2ccccc12` [AM‐2201], the “induced seizures, mechanism” value in data set [4] is given as “CB1‐mediated”.
As for `CCCCCCC(C)(C)c1ccc([C@@H]2C[C@H](O)CC[C@H]2CCCO)c(O)c1` [CP55940, reference compound], the “increase … by FSK alone” value in data set [2] was found to be 19%.
Turning to `CC(C)(NC(=O)c1nn(CCCCC#N)c2ccccc12)c1ccccc1` [CUMYL‐4CN‐BINACA, reference compound], the “induced seizures, mechanism” value in data set [4] was “CB1‐mediated”.
Turning to `CCCCCn1cc(C(=O)c2cccc3ccccc23)c2ccccc21` [JWH‐018], in data set [5], the “G i (‐PTX) pEC50” value is 7.8 ± 0.2 (16), the “G i (−PTX) selectivity” value is recorded as 18, the “Gi (-PTX) selectivity” value stood at 14 and the “effect of SR141716A pretreatment on SCRA-induced inhibition of cAMP signaling” value is listed as “blocked”. Further, the EC50 in data set [5] (setting [6]) is 16 nM. Further, the “induced seizures, mechanism” value in data set [4] is listed as “CB1‐mediated”. Further, in data set [2], the “G s (+PTX) E max (% FSK)” value came out at 114 ± 4 % FSK, the “G s (+PTX) pEC50” value was 6.5 ± 0.7 (288), the “Gs (+PTX) pEC50” value was 6.7 ± 0.7 (221) and the “activation of Gαs pathway (increase over FSK alone)” value came to 14%. In data set [2], the “effect … of FSK-induced cAMP response” value is “inhibited”. Also, the EC50 in data set [2] (setting [7]) is 288 nM. Besides, in data set [2] (setting [8]), the concentration for a half-maximal effect (EC50) was 221 nM.
Consider `CCCCCn1cc(C(=O)Oc2cccc3cccnc23)c2ccccc21` [PB‐22], for which, in data set [5], the “G i (‐PTX) E max (% FSK)” value is 64 ± 3 % FSK, the “G i (‐PTX) pEC50” value is on record as 8.6 ± 0.2 (2.5) and the “G i (−PTX) selectivity” value is reported as 28. The EC50 in data set [5] (setting [6]) is 2.5 nM. In addition, in data set [2], the “G s (+PTX) E max (% FSK)” value came out at 130 ± 3 % FSK, the “G s (+PTX) pEC50” value is 7.2 ± 0.5 (69) and the “increase … by FSK alone” value is recorded as “more than 30%”. In addition, the EC50 in data set [2] (setting [7]) is 69 nM.
For the compound `CC1(C)C(C(=O)c2cn(CCCCCF)c3ccccc23)C1(C)C` [XLR‐11], in data set [5], the “G i (‐PTX) E max (% FSK)” value amounted to 63 ± 2 % FSK, the “G i (‐PTX) pEC50” value was 7.2 ± 0.2 (63), the “G i (−PTX) selectivity” value is 75 and the “Gi (-PTX) selectivity” value stood at 103. Moreover, in data set [5] (setting [6]), the EC50 is 63 nM. Also, in data set [2], the “G s (+PTX) E max (% FSK)” value was determined as 124 ± 5 % FSK, the “G s (+PTX) pEC50” value was 5.3 ± 0.8 (4720) and the “Gs (+PTX) pEC50” value is recorded as 5.2 ± 0.8 (6490). Further, in data set [2] (setting [7]), the EC50 is 4720 nM. The EC50 in data set [2] (setting [8]) was 6490 nM.

(Values after PMC7043210, “Differential activation of G protein‐mediated signaling by synthetic cannabinoid receptor agonists” (Pharmacology Research & Perspectives, 2020).)
